Assay results published in patent US12077503B2, “Substituted cyclic amides and their use as herbicides” (FMC CORPORATION, priority 2015, dated 2024).

How the values were obtained:
Assay type in all cases: in vivo
[1] = test system: barnyardgrass (Echinochloa crus-galli); assay: Test G Pre-Emergence Protocol; details: Echinochloa crus-galli, pre-emergence, 312 h, evaluated after 13 days; for pest or weed control at 15.625 g/ha: 15.625 g ai/ha, read-out: Barnyard grass damage rating (100=total damage to plant; 0=no damage to plant); for pest or weed control at 62.5 g/ha: 62.5 g ai/ha, 100=total damage to plant, 0=no damage to plant, read-out: plant damage rating, Barnyardgrass; for pest or weed control at 250 g/ha: 250 g ai/ha, read-out: Barnyardgrass damage rating (100=total damage to plant; 0=no damage to plant)
Outline: (§1)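 Scores are visual damage ratings from 0 (no damage) to 100 (total plant kill), taken 13 days after treatment. Compound was sprayed one day post-sowing at 15.625, 62.5 or 250 g/ha in 50:50 acetone/water with 0.5% Tween 20.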

corn (Zea mays) [2] = assay: Test G Pre-Emergence Protocol; details: Zea mays, pre-emergence, 312 h, evaluated after 13 days; for plant injury at 15.625 g/ha: 15.625 g ai/ha; for plant injury at 15.625 g/ha / plant injury at 250 g/ha: read-out: Corn damage rating (100=total damage to plant; 0=no damage to plant); for plant injury at 62.5 g/ha: 62.5 g ai/ha, 100=total damage to plant, 0=no damage to plant, read-out: plant damage rating, Corn; for plant injury at 250 g/ha: 250 g ai/ha
Outline: as §1

[3] = test system: giant foxtail (Setaria faberi); assay: Test G Pre-Emergence Protocol; details: Setaria faberi, pre-emergence, 312 h, evaluated after 13 days; for pest or weed control at 15.625 g/ha: 15.625 g ai/ha; for pest or weed control at 15.625 g/ha / pest or weed control at 250 g/ha: read-out: Foxtail, Giant damage rating (100=total damage to plant; 0=no damage to plant); for pest or weed control at 62.5 g/ha: 62.5 g ai/ha, 100=total damage to plant, 0=no damage to plant, read-out: plant damage rating, Foxtail, Giant; for pest or weed control at 250 g/ha: 250 g ai/ha
Outline: as §1

[4] = test system: ivy-leaved morning glory (Ipomoea hederacea); assay: Test G Pre-Emergence Protocol; details: Ipomoea, pre-emergence, 312 h, evaluated after 13 days; for pest or weed control at 15.625 g/ha: 15.625 g ai/ha, read-out: Morning-glory, Ivy-leaved damage rating (100=total damage to plant; 0=no damage to plant); for pest or weed control at 62.5 g/ha: 62.5 g ai/ha, 100=total damage to plant, 0=no damage to plant, read-out: plant damage rating, Morningglory, Ivy-leaved; for pest or weed control at 250 g/ha: 250 g ai/ha, read-out: Morningglory, Ivy-leaved damage rating (100=total damage to plant; 0=no damage to plant)
Outline: as §1

[5] = test system: redroot pigweed (Amaranthus retroflexus); assay: Test G Pre-Emergence Protocol; details: Amaranthus retroflexus, pre-emergence, 312 h, evaluated after 13 days; for pest or weed control at 15.625 g/ha: 15.625 g ai/ha; for pest or weed control at 15.625 g/ha / pest or weed control at 250 g/ha: read-out: Pigweed, Redroot damage rating (100=total damage to plant; 0=no damage to plant); for pest or weed control at 62.5 g/ha: 62.5 g ai/ha, 100=total damage to plant, 0=no damage to plant, read-out: plant damage rating, Pigweed, Redroot; for pest or weed control at 250 g/ha: 250 g ai/ha
Outline: as §1

[6] = test system: velvetleaf (Abutilon theophrasti); assay: Test G Pre-Emergence Protocol; details: Abutilon theophrasti, pre-emergence, 312 h, evaluated after 13 days; for pest or weed control at 15.625 g/ha: 15.625 g ai/ha; for pest or weed control at 15.625 g/ha / pest or weed control at 250 g/ha: read-out: Velvetleaf damage rating (100=total damage to plant; 0=no damage to plant); for pest or weed control at 62.5 g/ha: 62.5 g ai/ha, 100=total damage to plant, 0=no damage to plant, read-out: plant damage rating, Velvetleaf; for pest or weed control at 250 g/ha: 250 g ai/ha
Outline: as §1

[7] = test system: barnyardgrass (Echinochloa crus-galli); assay: Test G Post-Emergence Protocol; details: Echinochloa crus-galli, post-emergence, 312 h; for pest or weed control at 15.625 g/ha: 15.625 g ai/ha, evaluated after 13 days (100=total damage to plant; 0=no damage to plant), read-out: Barnyardgrass damage rating; for pest or weed control at 62.5 g/ha: 62.5 g ai/ha, read-out: Barnyardgrass damage rating (100=total damage to plant; 0=no damage to plant); for pest or weed control at 62.5 g/ha / pest or weed control at 250 g/ha: evaluated after 13 days; for pest or weed control at 250 g/ha: 250 g ai/ha, read-out: damage to plant, Barnyardgrass (100=total damage to plant; 0=no damage to plant)
Outline: (§2)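 Damage was rated 13 days after treatment from 0 (none) to 100 (plant killed). Compound was applied as a spray at 15.625, 62.5 or 250 g/ha in 50:50 acetone/water containing 0.5% Tween 20, onto 8-day-old potted plants kept in a glasshouse (24/16 °C, 14 h light, 65% humidity).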

corn (Zea mays) [8] = assay: Test G Post-Emergence Protocol; details: Zea mays, post-emergence, 312 h; for plant injury at 15.625 g/ha: 15.625 g ai/ha, evaluated after 13 days (100=total damage to plant; 0=no damage to plant), read-out: Corn damage rating; for plant injury at 62.5 g/ha: 62.5 g ai/ha, read-out: Corn damage rating (100=total damage to plant; 0=no damage to plant); for plant injury at 62.5 g/ha / plant injury at 250 g/ha: evaluated after 13 days; for plant injury at 250 g/ha: 250 g ai/ha, read-out: damage to plant, Corn (100=total damage to plant; 0=no damage to plant)
Outline: as §2

[9] = test system: giant foxtail (Setaria faberi); assay: Test G Post-Emergence Protocol; details: Setaria faberi, post-emergence, 312 h; for pest or weed control at 15.625 g/ha: 15.625 g ai/ha, evaluated after 13 days (100=total damage to plant; 0=no damage to plant), read-out: Foxtail, Giant damage rating; for pest or weed control at 62.5 g/ha: 62.5 g ai/ha, read-out: Foxtail, Giant damage rating (100=total damage to plant; 0=no damage to plant); for pest or weed control at 62.5 g/ha / pest or weed control at 250 g/ha: evaluated after 13 days; for pest or weed control at 250 g/ha: 250 g ai/ha, read-out: damage to plant, Foxtail, Giant (100=total damage to plant; 0=no damage to plant)
Outline: as §2

[10] = test system: ivy-leaved morning glory (Ipomoea hederacea); assay: Test G Post-Emergence Protocol; details: Ipomoea, post-emergence, 312 h; for pest or weed control at 15.625 g/ha: 15.625 g ai/ha, evaluated after 13 days (100=total damage to plant; 0=no damage to plant), read-out: Morningglory, Ivy-leaved damage rating; for pest or weed control at 62.5 g/ha: 62.5 g ai/ha, read-out: Morningglory, Ivy-leaved damage rating (100=total damage to plant; 0=no damage to plant); for pest or weed control at 62.5 g/ha / pest or weed control at 250 g/ha: evaluated after 13 days; for pest or weed control at 250 g/ha: 250 g ai/ha, read-out: damage to plant, Morningglory, Ivy-leaved (100=total damage to plant; 0=no damage to plant)
Outline: as §2

[11] = test system: redroot pigweed (Amaranthus retroflexus); assay: Test G Post-Emergence Protocol; details: Amaranthus retroflexus, post-emergence, 312 h; for pest or weed control at 15.625 g/ha: 15.625 g ai/ha, evaluated after 13 days (100=total damage to plant; 0=no damage to plant), read-out: Pigweed, Redroot damage rating; for pest or weed control at 62.5 g/ha: 62.5 g ai/ha, read-out: Pigweed, Redroot damage rating (100=total damage to plant; 0=no damage to plant); for pest or weed control at 62.5 g/ha / pest or weed control at 250 g/ha: evaluated after 13 days; for pest or weed control at 250 g/ha: 250 g ai/ha, read-out: damage to plant, Pigweed, Redroot (100=total damage to plant; 0=no damage to plant)
Outline: as §2

[12] = test system: velvetleaf (Abutilon theophrasti); assay: Test G Post-Emergence Protocol; details: Abutilon theophrasti, post-emergence, 312 h; for pest or weed control at 15.625 g/ha: 15.625 g ai/ha, evaluated after 13 days (100=total damage to plant; 0=no damage to plant), read-out: Velvetleaf damage rating; for pest or weed control at 62.5 g/ha: 62.5 g ai/ha, read-out: Velvetleaf damage rating (100=total damage to plant; 0=no damage to plant); for pest or weed control at 62.5 g/ha / pest or weed control at 250 g/ha: evaluated after 13 days; for pest or weed control at 250 g/ha: 250 g ai/ha, read-out: damage to plant, Velvetleaf (100=total damage to plant; 0=no damage to plant)
Outline: as §2

Row | SMILES | pest or weed control at 15.625 g/ha [1] [%] | pest or weed control at 62.5 g/ha [1] [%] | pest or weed control at 250 g/ha [1] [%] | plant injury at 15.625 g/ha (corn (Zea mays) [2]) [%] | plant injury at 62.5 g/ha (corn (Zea mays) [2]) [%] | plant injury at 250 g/ha (corn (Zea mays) [2]) [%] | pest or weed control at 15.625 g/ha [3] [%] | pest or weed control at 62.5 g/ha [3] [%] | pest or weed control at 250 g/ha [3] [%] | pest or weed control at 15.625 g/ha [4] [%] | pest or weed control at 62.5 g/ha [4] [%] | pest or weed control at 250 g/ha [4] [%] | pest or weed control at 15.625 g/ha [5] [%] | pest or weed control at 62.5 g/ha [5] [%] | pest or weed control at 250 g/ha [5] [%] | pest or weed control at 15.625 g/ha [6] [%] | pest or weed control at 62.5 g/ha [6] [%] | pest or weed control at 250 g/ha [6] [%] | pest or weed control at 15.625 g/ha [7] [%] | pest or weed control at 62.5 g/ha [7] [%] | other results
1 | CN1C[C@H](c2ccc(C(F)(F)F)cc2)[C@@H](C(=O)Nc2ccc(F)cc2S(C)(=O)=O)C1=O (racemic) [Compound 1483] | 40 | 40 | 70 | 30 | 20 | 40 | 30 | 60 | 80 | 0 | 0 | 0 | 20 | 40 | 80 | 0 | 0 | 0 | 30 | 40 | pest or weed control at 250 g/ha [7]: 70%; plant injury at 15.625 g/ha (corn (Zea mays) [8]): 20%; plant injury at 62.5 g/ha (corn (Zea mays) [8]): 30%; plant injury at 250 g/ha (corn (Zea mays) [8]): 50%; pest or weed control at 15.625 g/ha [9]: 30%; pest or weed control at 62.5 g/ha [9]: 60%; pest or weed control at 250 g/ha [9]: 70%; pest or weed control at 15.625 g/ha [10]: 0%; pest or weed control at 62.5 g/ha [10]: 0%; pest or weed control at 250 g/ha [10]: 0%; pest or weed control at 15.625 g/ha [11]: 40%; pest or weed control at 62.5 g/ha [11]: 30%; pest or weed control at 250 g/ha [11]: 60%; pest or weed control at 15.625 g/ha [12]: 10%; pest or weed control at 62.5 g/ha [12]: 10%; pest or weed control at 250 g/ha [12]: 30%
2 | CN1C[C@@H](c2cnc(Cl)c(F)c2)[C@H](C(=O)Nc2cccc(F)c2F)C1=O (racemic) [Compound 1486] | 30 | 60 | 90 | 10 | 20 | 40 | 40 | 90 | 90 | 0 | 0 | 0 | 0 | 0 | 60 | 0 | 0 | 10 | 40 | 60 | pest or weed control at 250 g/ha [7]: 70%; plant injury at 15.625 g/ha (corn (Zea mays) [8]): 10%; plant injury at 62.5 g/ha (corn (Zea mays) [8]): 10%; plant injury at 250 g/ha (corn (Zea mays) [8]): 60%; pest or weed control at 15.625 g/ha [9]: 60%; pest or weed control at 62.5 g/ha [9]: 60%; pest or weed control at 250 g/ha [9]: 70%; pest or weed control at 15.625 g/ha [10]: 0%; pest or weed control at 62.5 g/ha [10]: 0%; pest or weed control at 250 g/ha [10]: 0%; pest or weed control at 15.625 g/ha [11]: 0%; pest or weed control at 62.5 g/ha [11]: 0%; pest or weed control at 250 g/ha [11]: 30%; pest or weed control at 15.625 g/ha [12]: 0%; pest or weed control at 62.5 g/ha [12]: 0%; pest or weed control at 250 g/ha [12]: 10%
